Data reported in publication PMC9025941, “Influence of the Type of Amino Acid on the Permeability and Properties of Ibuprofenates of Isopropyl Amino Acid Esters” (International Journal of Molecular Sciences, 2022).
Several values for one entry are separate records, joined by “and”; a condition that tells them apart may be missing. Equal values may be shown once. Read-outs that look alike come from different tables or passages of the source. Marks after values point to notes of the source that are not given here.

Assays:
[1] = Solubility in organic solvents by modified Vogel's method; conditions: 25 °C
[2] = Thermal stability (TG/DTG): decomposition onset and maximum mass-loss rate temperature
Description: In Figure 5, the thermal stability of ibuprofen and amino acid isopropyl ester ibuprofenates was determined and compared. All TG, DTG, and c-DTA curves are in the Supplementary Materials (Figures S87–S100). The decomposition onset temperature (Tonset) and the temperature of the maximum rate of mass loss (Tmax) were determined.

[3] = In vitro skin permeation, Franz diffusion cells; conditions: for Q%24 h, the percentage of the applied dose permeated after 24 h / Cumulative Permeation Mass / LT, lag time: n = 3; for Q%24 h, the percentage of the applied dose permeated after 24 h / Cumulative Permeation Mass: 24 h; for EF, enhancement factor: relative to IBU; for JSS, steady-state flux: saturated solution in PBS pH 7.4, n = 3
[4] = n-octanol-water partition coefficient, shake flask method; conditions: shake flask, 25 °C
[5] = Solubility (saturation concentration) in deionised water and PBS pH 7.4, HPLC; conditions: for Solubility in Phosphate Buffer pH = 7.4: PBS pH 7.4, 32 °C; for Solubility in Water: 25 °C
[6] = 24 h penetration, n = 3
[7] = saturated solution in PBS pH 7.4, mass of compound
[8] = saturated solution in PBS pH 7.4, mass of ibuprofen

SMILES	Solubility in DMSO [1]	Solubility in chloroform [1]	Solubility in dichloromethane [1]	Solubility in diethyl ether [1]	Solubility in ethanol [1]	Solubility in ethyl acetate [1]	Solubility in n-hexane [1]	Solubility in toluene [1]	Tonset, the onset temperature of the thermal degradation [2] [°C]	Q%24 h, the percentage of the applied dose permeated after 24 h [3] [%]	Cumulative Permeation Mass [3, 7]	Cumulative Permeation Mass [3, 8]	LT, lag time [3] [h]	EF, enhancement factor [3]	JSS, steady-state flux [3] [µg IBU cm^−2 h^−1]	Log P (n-octanol-water partition coefficient) [4]	Solubility in Phosphate Buffer pH = 7.4 ([5]; g of active compound (IBU)) [g IBU∙dm^−3]	Solubility in Phosphate Buffer pH = 7.4 ([5]; g of compound) [g∙dm^−3]	Solubility in Water ([5]; g of active compound (IBU)) [g IBU∙dm^−3]	Solubility in Water ([5]; g of compound) [g∙dm^−3]	also measured
CC(C)Cc1ccc(C(C)C(=O)O)cc1.CC(C)OC(=O)[C@H](C)N [[L-AlaOiPr][IBU], L-alanine isopropyl ester ibuprofenate]	+ (soluble >100 mg cm^−3)	+ (soluble >100 mg cm^−3)	+ (soluble >100 mg cm^−3)	+/− (partially soluble 33–100 mg cm^−3)	+ (soluble >100 mg cm^−3)	+ (soluble >100 mg cm^−3)	− (insoluble <33 mg cm^−3)	+ (soluble >100 mg cm^−3)	78.3	6.786 ± 0.214	572.719 ± 18.05 ^b µg·cm^−2	350.100 ± 11.039 ^b µg IBU·cm^−2	1.691 ± 0.041	0.92	44.510 ± 0.861	0.719 ± 0.004	5.159 ± 0.015	8.440 ± 0.024	2.463 ± 0.008	4.030 ± 0.014	
CC(C)Cc1ccc(C(C)C(=O)O)cc1.CC(C)OC(=O)[C@@H](N)CS [[L-CysOiPr][IBU], L-cysteine isopropyl ester ibuprofenate]	+ (soluble >100 mg cm^−3)	+ (soluble >100 mg cm^−3)	+ (soluble >100 mg cm^−3)		+ (soluble >100 mg cm^−3)	+/− (partially soluble 33–100 mg cm^−3)	− (insoluble <33 mg cm^−3)		190.2	12.210 ± 1.119	541.776 ± 49.664 ^b µg·cm^−2	305.756 ± 28.028 ^b µg IBU·cm^−2	1.873 ± 0.104	1.65	28.858 ± 2.984	1.430 ± 0.005	2.440 ± 0.287	4.437 ± 0.287	1.143 ± 0.253	2.048 ± 0.253	
CC(C)C[C@H](N)C(=O)OC(C)C.CC(C)Cc1ccc(C(C)C(=O)O)cc1 [[L-LeuOiPr][IBU], L-leucine isopropyl ester ibuprofenate]	+ (soluble >100 mg cm^−3)	+ (soluble >100 mg cm^−3)	+ (soluble >100 mg cm^−3)	+/− (partially soluble 33–100 mg cm^−3)	+ (soluble >100 mg cm^−3)	+ (soluble >100 mg cm^−3)	− (insoluble <33 mg cm^−3)	+ (soluble >100 mg cm^−3)	109.5	11.077 ± 0.236	424.683 ± 9.060 ^b µg·cm^−2	230.824 ± 4.924 ^b µg IBU·cm^−2	1.742 ± 0.061	1.50	38.502 ± 1.553	1.391 ± 0.001	2.084 ± 0.002	3.834 ± 0.003	0.682 ± 0.038	1.255 ± 0.070	
CC(C)Cc1ccc(C(C)C(=O)O)cc1.CC(C)Cc1ccc(C(C)C(=O)O)cc1.CC(C)OC(=O)[C@@H](N)CCCCN [[L-LysOiPr][IBU]2, L-lysine isopropyl ester bis(ibuprofenate)]	+ (soluble >100 mg cm^−3)	− (insoluble <33 mg cm^−3)	− (insoluble <33 mg cm^−3)	− (insoluble <33 mg cm^−3)	+ (soluble >100 mg cm^−3)	− (insoluble <33 mg cm^−3)	− (insoluble <33 mg cm^−3)	− (insoluble <33 mg cm^−3)		10.624 ± 0.474	640.825 ± 28.577 ^b µg·cm^−2	220.016 ± 9.811 ^b µg IBU·cm^−2	1.333 ± 0.258	1.43	24.852 ± 2.857		2.071 ± 0.118	6.032 ± 0.342	2.012 ± 0.110	5.861 ± 0.322	Tonset, the onset temperature of the thermal degradation ([2]; TG): 183.7 °C; Accumulation in the skin [6]: 392.593 ± 111.434 µg IBU g^−1
CC(C)Cc1ccc(C(C)C(=O)O)cc1.CC(C)OC(=O)[C@@H](N)CCCCN [[L-LysOiPr][IBU], L-lysine isopropyl ester ibuprofenate]	+ (soluble >100 mg cm^−3)	− (insoluble <33 mg cm^−3)	− (insoluble <33 mg cm^−3)	− (insoluble <33 mg cm^−3)	+ (soluble >100 mg cm^−3)	− (insoluble <33 mg cm^−3)	− (insoluble <33 mg cm^−3)	− (insoluble <33 mg cm^−3)		11.062 ± 0.475	1011.106 ± 43.448 ^b µg·cm^−2	528.643 ± 22.716 µg IBU·cm^−2 and 528.643 ± 22.716 ^b µg IBU·cm^−2	1.423 ± 0.130	1.49	56.801 ± 4.129		4.779 ± 0.061	9.140 ± 0.117	5.047 ± 0.060	9.6534 ± 0.115	Tonset, the onset temperature of the thermal degradation ([2]; TG): 177.9 °C
CC(C)Cc1ccc(C(C)C(=O)O)cc1.CC(C)OC(=O)[C@@H](N)Cc1ccccc1 [[L-PheOiPr][IBU], L-phenylalanine isopropyl ester ibuprofenate]	+ (soluble >100 mg cm^−3)	+ (soluble >100 mg cm^−3)	+ (soluble >100 mg cm^−3)	+/− (partially soluble 33–100 mg cm^−3)	+ (soluble >100 mg cm^−3)	+ (soluble >100 mg cm^−3)	− (insoluble <33 mg cm^−3)	+ (soluble >100 mg cm^−3)	175.8	35.912 ± 0.539	711.866 ± 5.956 ^b µg·cm^−2	355.088 ± 5.482 ^b µg IBU·cm^−2	1.368 ± 0.091	4.85	48.578 ± 4.836	2.207 ± 0.026	1.017 ± 0.001	2.039 ± 0.001	0.297 ± 0.024	0.595 ± 0.048	KP, times higher than for ibuprofen [3]: 6.839 times
